Data: US20230103462A1, “TOPICAL PHARMACEUTICAL COMPOSITION IN GEL FORM COMPRISING AT LEAST AMITRIPTYLINE FOR USE IN THE TREATMENT OF NEUROPATHIC PHANTOM LIMB PAIN” (priority 2021, published 2023)

Experiment: Comparative ex vivo study of the percutaneous absorption of amitriptyline (Frantz cell)
Format: in vitro ADME
Settings: human skin ex vivo, compositions with 10% amitriptyline hydrochloride
Method: Comparative ex vivo study of the percutaneous absorption of amitriptyline in a formulation A in aqueous gel form (invention) and in a formulation B in cream form (comparative). Each of compositions A and B was applied on separate human skin samples. For each composition, the experiment was repeated 3 times with 3 skin samples from 3 different donors, i.e., 9 samples. The skin samples are mounted in a Frantz cell and are heated to a surface temperature of 32° C.±1° C. Composition A or B is spread evenly using a spatula on each skin sample at a rate of 10 mg per cell, corresponding to 5 mg/cm^2 of skin. The skin samples are rinsed 16 hours after application. Each skin sample was placed with a tweezers on a paper towel (dermis facing downward). The stratum corneum is removed using adhesive strips. After removing the stratum corneum, the sample is perforated. The epidermis is then separated from the dermis. Each of them is placed in separate bottles. The different samples were then extracted.

systemic passage of amitriptyline: less than 0.1 % of the administered dose
SMILES: CN(C)CCC=C1c2ccccc2CCc2ccccc21 [amitriptyline, Amitriptyline]
